Results from ChEMBL document CHEMBL1821724, “Synthesis and in vitro evaluation of derivatives of the β₁-adrenergic receptor antagonist HX-CH 44” (Bioorg Med Chem Lett, 2011).

Assays:
[1] = biological target: Beta-2 adrenergic receptor (Homo sapiens, UniProt P07550); test: Displacement of [125I]-Iodopindolol from beta2-adrenergic receptor after 1.5 hrs by liquid scintillation counting
[2] = biological target: T1, 5-hydroxytryptamine receptor 1A (Homo sapiens, UniProt P08908); test: Displacement of [3H]-8-OH-DPAT from 5HT1A receptor after 1.5 hrs by liquid scintillation counting
T1 sequence (P08908 whole entry): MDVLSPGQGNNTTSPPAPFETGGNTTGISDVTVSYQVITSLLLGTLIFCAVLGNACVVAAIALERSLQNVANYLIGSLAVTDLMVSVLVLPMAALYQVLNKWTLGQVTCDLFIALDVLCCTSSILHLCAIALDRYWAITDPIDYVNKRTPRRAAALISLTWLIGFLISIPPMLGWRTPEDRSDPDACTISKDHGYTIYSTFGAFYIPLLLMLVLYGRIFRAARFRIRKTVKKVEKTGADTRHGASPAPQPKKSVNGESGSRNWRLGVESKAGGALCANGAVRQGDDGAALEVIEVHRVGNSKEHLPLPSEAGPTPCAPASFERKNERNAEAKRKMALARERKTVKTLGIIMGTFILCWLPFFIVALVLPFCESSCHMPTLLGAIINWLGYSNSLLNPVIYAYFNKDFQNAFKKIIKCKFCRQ

[3] = biological target: Beta-1 adrenergic receptor (Homo sapiens, UniProt P08588); test: Displacement of [125I]-Iodopindolol from beta1-adrenergic receptor after 1.5 hrs by liquid scintillation counting
[4] = biological target: Beta-1 adrenergic receptor (Rattus norvegicus, UniProt P18090); test: Displacement of [3H]-CGP12177 from beta1-adrenergic receptor in rat heart membranes; assay type: cell membranes, Membrane
Sequence of Beta-1 adrenergic receptor (Rattus norvegicus, UniProt P18090) (P18090 whole entry): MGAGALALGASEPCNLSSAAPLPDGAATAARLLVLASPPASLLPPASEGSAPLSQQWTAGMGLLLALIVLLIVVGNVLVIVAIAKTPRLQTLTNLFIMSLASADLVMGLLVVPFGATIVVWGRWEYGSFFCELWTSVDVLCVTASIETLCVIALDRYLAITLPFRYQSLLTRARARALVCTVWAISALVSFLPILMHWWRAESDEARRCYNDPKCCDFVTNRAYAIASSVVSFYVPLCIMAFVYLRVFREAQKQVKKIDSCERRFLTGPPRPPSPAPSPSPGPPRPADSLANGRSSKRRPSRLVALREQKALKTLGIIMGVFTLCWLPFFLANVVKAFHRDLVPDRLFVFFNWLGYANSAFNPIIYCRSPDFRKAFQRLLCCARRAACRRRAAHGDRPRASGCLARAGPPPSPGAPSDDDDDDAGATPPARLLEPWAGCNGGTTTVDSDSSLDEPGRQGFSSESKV

Sequence of Beta-1 adrenergic receptor (Homo sapiens, UniProt P08588) (P08588 whole entry): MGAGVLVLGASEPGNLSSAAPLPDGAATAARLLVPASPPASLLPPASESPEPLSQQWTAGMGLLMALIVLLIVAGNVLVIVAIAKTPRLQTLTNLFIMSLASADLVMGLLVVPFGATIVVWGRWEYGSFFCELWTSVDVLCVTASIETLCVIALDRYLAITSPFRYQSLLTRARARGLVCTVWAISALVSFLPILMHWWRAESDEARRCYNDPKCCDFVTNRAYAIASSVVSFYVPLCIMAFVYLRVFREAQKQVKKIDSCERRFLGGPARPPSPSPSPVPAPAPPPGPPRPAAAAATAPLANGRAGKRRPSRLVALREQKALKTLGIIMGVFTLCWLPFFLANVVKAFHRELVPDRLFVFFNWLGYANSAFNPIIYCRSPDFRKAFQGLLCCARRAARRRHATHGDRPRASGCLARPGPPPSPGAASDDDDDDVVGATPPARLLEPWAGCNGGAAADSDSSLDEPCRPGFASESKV
Sequence of Beta-2 adrenergic receptor (P07550 whole entry): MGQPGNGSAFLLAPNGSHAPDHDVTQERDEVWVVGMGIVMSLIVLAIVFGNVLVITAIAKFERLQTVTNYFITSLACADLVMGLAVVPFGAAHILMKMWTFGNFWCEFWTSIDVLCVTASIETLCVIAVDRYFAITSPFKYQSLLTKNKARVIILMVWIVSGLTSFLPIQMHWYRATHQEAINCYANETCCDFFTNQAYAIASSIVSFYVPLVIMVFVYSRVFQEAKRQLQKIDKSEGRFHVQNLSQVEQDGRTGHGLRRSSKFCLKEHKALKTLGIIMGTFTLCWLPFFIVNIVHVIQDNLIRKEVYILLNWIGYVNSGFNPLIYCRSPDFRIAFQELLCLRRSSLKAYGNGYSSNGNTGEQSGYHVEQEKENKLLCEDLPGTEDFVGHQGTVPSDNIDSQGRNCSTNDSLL

Ki [1] [µM] | Ki [2] [µM] | Ki [3] [µM] | Ki [4] [µM] | Compound
> 10 | > 10 | 3 | – | COc1ccc2nc(-c3ccc(OC[C@@H](O)CNC(C)CF)cc3)n(C)c(=O)c2c1 (stereo not given in full)
> 10 | > 10 | 2.3 | – | COc1ccc2nc(-c3ccc(OCC(O)CNC(C)CF)cc3)n(C)c(=O)c2c1 (mixture of isomers)
– | – | – | 0.077 | COc1ccc2nc(-c3ccc(OCC(O)CNC(C)(C)C)cc3)n([11CH3])c(=O)c2c1 (racemic)
7.7 | 5.5 | 2.4 | – | COc1ccc2nc(-c3ccc(OCC(O)CNC(C)C)cc3)n(C)c(=O)c2c1 (racemic)
